Measured values published in patent publication US5061794A, “Cephalosporin derivatives, and antibacterial agents” (priority 1986, dated 1991).
Converted amounts (≈) assume the structure as drawn. Like-named read-outs stand apart in the source and are kept apart here.

Columns and labels:
[1] = system: E. coli CSH(RE45); test: microbe, parasite or virus in culture; assay type: cell-based; conditions: 10^6 CFU/ml; for MIC: Escherichia coli, 16 h, read-out: Minimum Inhibitory Concentration (MIC), *E. coli CSH(RE45), lactamase-producing strain
In short: (§1)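 Agar dilution: MH agar + graded drug conc.; inoculum 10^6 CFU/ml (overnight MH broth culture, one loopful); 37° C., 16 h; MIC, μg/ml.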

[2] = system: E. coli CSH2 (RK1); test: microbe, parasite or virus in culture; assay type: cell-based; conditions: 10^6 CFU/ml; for MIC: Escherichia coli, 16 h, read-out: Minimum Inhibitory Concentration (MIC), *E. coli CSH2 (RK1), lactamase-producing strain
In short: as §1

[3] = system: E. cloacae 963; test: in vitro antibacterial activity, agar plate dilution method (MIC); assay type: cell-based; conditions: 10^6 CFU/ml
In short: as §1

[4] = system: E. cloacae Nek 39; test: as above; assay type: cell-based; conditions: 10^6 CFU/ml; for MIC: Enterobacter cloacae, NEK39, 16 h
In short: as §1

[5] = system: E. coli GN5482; test: as above; assay type: cell-based; conditions: for MIC: Escherichia coli, GN5482, 16 h
In short: as §1

[6] = system: E. coli NIHJ JC2; test: as above; assay type: cell-based; conditions: for MIC: Escherichia coli, NIHJJC2, 16 h, read-out: Minimum Inhibitory Concentration (MIC), E. coli NIHJ JC2, 10^6 CFU/ml, 37° C.
In short: as §1

[7] = system: K. oxytoca GN10650; test: as above; assay type: cell-based; conditions: 10^6 CFU/ml; for MIC: Klebsiella oxytoca
In short: as §1

[8] = system: K. pneumoniae No. 42; test: as above; assay type: cell-based; conditions: 10^6 CFU/ml; for MIC: Klebsiella pneumoniae
In short: as §1

[9] = system: K. pneumoniae PCI-602; test: as above; assay type: cell-based; conditions: 10^6 CFU/ml; for MIC: Klebsiella pneumoniae, PCI602, 16 h, read-out: Minimum Inhibitory Concentration (MIC), K. pneumoniae PCI-602
In short: as §1

[10] = system: M. morganii GN5407; test: as above; assay type: cell-based; conditions: 10^6 CFU/ml; for MIC: Morganella morganii
In short: as §1

[11] = system: P. vulgaris HX-19; test: as above; assay type: cell-based; conditions: P. vulgaris HX-19, 10^6 CFU/ml; for MIC: Proteus vulgaris, HX19, 16 h, read-out: Minimum Inhibitory Concentration (MIC)
In short: as §1

[12] = system: P. vulgaris No. 33; test: as above; assay type: cell-based; conditions: 10^6 CFU/ml; for MIC: Proteus vulgaris
In short: as §1

[13] = system: S. aureus 209P NIHJ-JC1; test: as above; assay type: cell-based; conditions: for MIC: Staphylococcus aureus, 16 h
In short: as §1

[14] = system: S. marcescens IAM 1184; test: as above; assay type: cell-based; conditions: S. marcescens IAM 1184, 10^6 CFU/ml; for MIC: Serratia marcescens, IAM1184, 16 h, read-out: Minimum Inhibitory Concentration (MIC)
In short: as §1

[15] = system: S. marcescens No. 16-2; test: as above; assay type: cell-based; conditions: for MIC: Serratia marcescens, NO.162, 16 h
In short: as §1

[16] = system: Ps. aeruginosa AK 109; test: as above; assay type: cell-based, Pseudomonas aeruginosa; conditions: Pseudomonas aeruginosa, AK109, 16 h
In short: as §1

[17] = system: Ps. aeruginosa AKR17; test: as above; assay type: cell-based, Pseudomonas aeruginosa; conditions: Pseudomonas aeruginosa, read-out: Minimum Inhibitory Concentration (MIC)
In short: as §1

[18] = system: Ps. aeruginosa IF03445; test: as above; assay type: cell-based, Pseudomonas aeruginosa; conditions: Pseudomonas aeruginosa, 10^6 CFU/ml
In short: as §1

[19] = system: Ps. cepacia 23; test: as above; assay type: cell-based, Pseudomonas cepacia; conditions: for MIC: read-out: Minimum Inhibitory Concentration (MIC)
In short: as §1

[20] = system: A. calcoaceticus No. 4; test: as above; assay type: cell-based, Acinetobacter calcoaceticus; conditions: 10^6 CFU/ml; for MIC: Acinetobacter calcoaceticus, NO.4, 16 h
In short: as §1

[21] = Enterobacter cloacae, 963, 16 h, read-out: Minimum Inhibitory Concentration (MIC), E. cloacae 963
[22] = read-out: Minimum Inhibitory Concentration (MIC)
[23] = IF03445, 16 h, read-out: Minimum Inhibitory Concentration (MIC), Ps. aeruginosa IF03445
[24] = Enterobacter cloacae, 16 h, E. cloacae 963, read-out: Minimum Inhibitory Concentration (MIC)
[25] = 16 h, Ps. aeruginosa AKR17, 10^6 CFU/ml
[26] = read-out: Minimum Inhibitory Concentration (MIC), *E. cloacae Nek 39, lactamase-producing strain
[27] = GN10650, 16 h, read-out: Minimum Inhibitory Concentration (MIC), *K. oxytoca GN10650, lactamase-producing strain
[28] = NO.42, 16 h, read-out: Minimum Inhibitory Concentration (MIC), *K. pneumoniae No. 42, lactamase-producing strain
[29] = GN5407, 16 h, read-out: Minimum Inhibitory Concentration (MIC), *M. morganii GN5407, lactamase-producing strain
[30] = NO.33, 16 h, read-out: Minimum Inhibitory Concentration (MIC), *P. vulgaris No. 33, lactamase-producing strain
[31] = read-out: Minimum Inhibitory Concentration (MIC), *S. marcescens No. 16-2, lactamase-producing strain, 10^6 CFU/ml
[32] = Burkholderia cepacia, 16 h, Ps. cepacia 23, 10^6 CFU/ml
[33] = read-out: Minimum Inhibitory Concentration (MIC), A. calcoaceticus No. 4

Compound: Nc1nc(C(=NOC(C(=O)O)c2ccccc2)C(=O)NC2C(=O)N3C(C(=O)O)=C(CSc4nc(C(=O)O)c(-c5ccc(O)c(O)c5)s4)CSC23)cs1 (single isomer, unassigned) [Example 51 DB]
- Minimum Inhibitory Concentration (MIC) ([1]; *E. coli CSH(RE45), lactamase-producing strain): 0.0125 µg/mL
- Minimum Inhibitory Concentration (MIC) ([2]; *E. coli CSH2 (RK1), lactamase-producing strain): 0.0125 µg/mL
- MIC [3, 21]: 0.05 µg/mL (≈ 0.0637 µM)
- Minimum Inhibitory Concentration (MIC) ([4]; *E. cloacae Nek 39, lactamase-producing strain): 0.05 µg/mL
- Minimum Inhibitory Concentration (MIC) ([5]; *E. coli GN5482, lactamase-producing strain, 10^6 CFU/ml): 0.78 µg/mL
- Minimum Inhibitory Concentration (MIC) ([6]; E. coli NIHJ JC2, 10^6 CFU/ml, 37° C., 16 hours): 0.39 µg/mL
- Minimum Inhibitory Concentration (MIC) ([7]; *K. oxytoca GN10650, lactamase-producing strain): 0.025 µg/mL
- Minimum Inhibitory Concentration (MIC) ([8]; *K. pneumoniae No. 42, lactamase-producing strain): 0.05 µg/mL
- Minimum Inhibitory Concentration (MIC) ([9]; K. pneumoniae PCI-602): < 0.006 µg/mL
- Minimum Inhibitory Concentration (MIC) ([10]; *M. morganii GN5407, lactamase-producing strain): 0.05 µg/mL
- Minimum Inhibitory Concentration (MIC) [11]: < 0.006 µg/mL
- Minimum Inhibitory Concentration (MIC) ([12]; *P. vulgaris No. 33, lactamase-producing strain): 0.0125 µg/mL
- Minimum Inhibitory Concentration (MIC) ([13]; S. aureus 209P NIHJ-JC1, 10^6 CFU/ml, 37° C., 16 hours): 25 µg/mL
- Minimum Inhibitory Concentration (MIC) [14]: 0.05 µg/mL
- Minimum Inhibitory Concentration (MIC) ([15]; *S. marcescens No. 16-2, lactamase-producing strain, 10^6 CFU/ml): 0.78 µg/mL
- MIC [16, 22]: 0.39 µg/mL (≈ 0.497 µM)
- MIC ([17]; AKR17, 16 h): 0.39 µg/mL (≈ 0.497 µM)
- MIC [18, 23]: 0.39 µg/mL (≈ 0.497 µM)
- Minimum Inhibitory Concentration (MIC) ([19]; Ps. cepacia 23, 10^6 CFU/ml): < 0.006 µg/mL
- Minimum Inhibitory Concentration (MIC) ([20]; A. calcoaceticus No. 4): 0.1 µg/mL

Compound: CC(C)(O/N=C(\C(=O)N[C@@H]1C(=O)N2C(C(=O)O)=C(CSc3nnc(-c4ccccc4)s3)CS[C@H]12)c1csc(N)n1)C(=O)O [compound 6, disodium 7β-[2-(2-aminothiazol-4-yl)-(1-carboxylate-1-methylethoxyimino)acetamido]-3-(5-phenyl-1,3,4-thiadiazol-2-yl) thiomethyl-3-cephem-4carboxylate, reference compound]
- MIC [1]: 3.12 µg/mL
- MIC [2]: 3.12 µg/mL
- MIC [3, 24]: 6.25 µg/mL
- MIC ([4]; *E. cloacae Nek 39, lactamase-producing strain, read-out: Minimum Inhibitory Concentration (MIC)): 50 µg/mL
- MIC [5, 22]: 3.12 µg/mL
- MIC [6]: 3.12 µg/mL
- MIC ([7]; 16 h, *K. oxytoca GN10650, lactamase-producing strain, read-out: Minimum Inhibitory Concentration (MIC)): 6.25 µg/mL
- MIC ([8]; 16 h, *K. pneumoniae No. 42, lactamase-producing strain, read-out: Minimum Inhibitory Concentration (MIC)): 6.25 µg/mL
- MIC [9]: 0.1 µg/mL
- MIC ([10]; 16 h, *M. morganii GN5407, lactamase-producing strain, read-out: Minimum Inhibitory Concentration (MIC)): 6.25 µg/mL
- MIC [11]: < 0.006 µg/mL
- MIC ([12]; 16 h, *P. vulgaris No. 33, lactamase-producing strain, read-out: Minimum Inhibitory Concentration (MIC)): 0.39 µg/mL
- MIC [13, 22]: 3.12 µg/mL
- MIC [14]: 1.56 µg/mL
- MIC [15, 22]: 12.5 µg/mL
- MIC ([16]; Ps. aeruginosa AK 109, 10^6 CFU/ml, read-out: Minimum Inhibitory Concentration (MIC)): 100 µg/mL
- MIC [17, 25]: > 100 µg/mL
- MIC ([18]; 16 h, Ps. aeruginosa IF03445, read-out: Minimum Inhibitory Concentration (MIC)): 50 µg/mL
- MIC ([19]; Burkholderia cepacia, 23, 16 h): 12.5 µg/mL
- MIC ([20]; A. calcoaceticus No. 4, read-out: Minimum Inhibitory Concentration (MIC)): 6.25 µg/mL

Compound: CO/N=C(\C(=O)N[C@@H]1C(=O)N2C(C(=O)O)=C(CSc3nnc(-c4ccc(OC(C)=O)c(OC(C)=O)c4)o3)CS[C@H]12)c1csc(N)n1 [Ex. 4, sodium 3-[5-(3,4-diacetoxyphenyl)-1,3,4-oxadiazol-2-yl]thiomethyl-7β-[2-(2-thiazol-4-yl)-2-methoxyiminoacetamido]-3-cephem-4carboxylate]
- MIC [1]: 0.78 µg/mL
- MIC [2]: < 0.006 µg/mL
- MIC [3, 24]: < 0.006 µg/mL
- MIC [4, 26]: 0.05 µg/mL
- MIC [5, 22]: 0.39 µg/mL
- MIC [6]: 0.05 µg/mL
- MIC [7, 27]: 0.39 µg/mL
- MIC [8, 28]: 0.025 µg/mL
- MIC [9]: < 0.006 µg/mL
- MIC [10, 29]: 0.0125 µg/mL
- MIC [11]: < 0.006 µg/mL
- MIC [12, 30]: 0.0125 µg/mL
- MIC [13, 22]: 3.12 µg/mL
- MIC [14]: < 0.006 µg/mL
- MIC [15, 31]: 1.56 µg/mL
- MIC [16, 22]: 0.39 µg/mL
- MIC [17, 25]: > 100 µg/mL
- MIC [18, 23]: 0.78 µg/mL
- MIC [19, 32]: 0.1 µg/mL
- MIC [20, 33]: 0.1 µg/mL

Compound: C=CCON=C(C(=O)NC1C(=O)N2C(C(=O)O)=C(CSc3nc(-c4ccc(O)c(O)c4)cs3)CSC12)c1csc(N)n1 (centres unmarked) [Ex. 42, sodium 78-[2-allyloxyimino-2-(2-aminothiazol-4-yl)acetamido]-3-[4-(3,4-dihydroxyphenyl)-thiazol-2-yl]thiomethyl-3-cephem-4-carboxylate]
- MIC [1]: 0.025 µg/mL
- MIC [2]: 0.025 µg/mL
- MIC [3, 21]: 0.05 µg/mL
- MIC [4, 26]: 0.39 µg/mL
- MIC ([5]; read-out: Minimum Inhibitory Concentration (MIC), *E. coli GN5482, lactamase-producing strain, 10^6 CFU/ml): 0.78 µg/mL
- MIC [6]: 0.2 µg/mL
- MIC [7, 27]: 3.12 µg/mL
- MIC [8, 28]: 0.2 µg/mL
- MIC [9]: < 0.006 µg/mL
- MIC [10, 29]: 0.05 µg/mL
- MIC [11]: 0.0125 µg/mL
- MIC [12, 30]: 0.05 µg/mL
- MIC ([13]; read-out: Minimum Inhibitory Concentration (MIC), S. aureus 209P NIHJ-JC1, 10^6 CFU/ml, 37° C., 16 hours): 0.78 µg/mL
- MIC [14]: 0.05 µg/mL
- MIC [15, 31]: 6.25 µg/mL
- MIC ([16]; read-out: Minimum Inhibitory Concentration (MIC), Ps. aeruginosa AK 109, 10^6 CFU/ml): 0.78 µg/mL
- MIC [17, 25]: 100 µg/mL
- MIC [18, 23]: 0.78 µg/mL
- MIC [19, 32]: 0.1 µg/mL
- MIC [20, 33]: 0.39 µg/mL
